Test results: article PMC11763590, “Fluorescence Polarization Immunoassay for Rapid, Sensitive Detection of the Herbicide 2,4-Dichlorophenoxyacetic Acid in Juice and Water Samples” (Biosensors, 2025)

Target: monoclonal antibody against 2,4-D (MAb)
Assay: fluorescence polarization titration of tracer with antibody
Assay type: binding

| Kd | SMILES |
| --- | --- |
| 3.2 ± 0.5 nM | O=C(COc1ccc(Cl)cc1Cl)NCCCCNC(=S)Nc1ccc(-c2c3ccc(=O)cc-3oc3cc(O)ccc23)c(C(=O)O)c1 [2,4-D-BDF, 2,4-D-buthylenediamin fluoresceinthiocarbamyl] |
| 3.7 ± 0.6 nM | O=C(COc1ccc(Cl)cc1Cl)NCC(=O)Nc1ccc(-c2c3ccc(=O)cc-3oc3cc(O)ccc23)c(C(=O)O)c1 [2,4-D-GAF, 2,4-D-glycine aminofluorescein] |
